In patent US7795208B2, “Methods of using deacetylase inhibitors to promote cell differentiation and regeneration” (The Salk Institute for Biological Study, priority 2001, dated 2010):

Legend:
[1] = test system: human skeletal myocytes (HSkM); test: MHC-positive myotube formation in primary human skeletal myocytes; type: cell-based; conditions: HSkM treated 24 hours in GM, then DM without TSA 48 hours
Experimental: Cellular extracts were obtained and analyzed by Western blotting for the presence of MHC, tubulin, and myogenin. […] Nuclei were stained with DAPI. […] Additionally, RT-PCR was performed on RNA obtained form cells treated with TSA (T) or without (-) TSA with specific primers for either MCK or GAPDH. […] Nuclei were stained with DAPI. […] Cells were grown in GM and treated with TSA for 24 hours, then switched to DM in the absence of TSA for additional 48 hours. Nuclei were stained with DAPI. Additionally, a Western blot analysis of MHC and tubulin expression in either untreated or TSA-treated (T) HSkM is shown. […] Nuclei were stained with DAPI. Mouse muscle myoblast C2C12 cells (obtained from the American Type Culture Collection, ATCC CRL-1772) and CC42 cells (from Dr. Kenneth Walsh, Tufts University School of Medicine) were cultured in DMEM supplemented with 20% fetal bovine serum, 2 mM glutamine and 1× kanamycin (growth medium, GM). Cellular differentiation was induced with DMEM supplemented with 2% horse serum and 1× insulin, transferring, selenium (Life Technologies). Human skeletal myocytes (CC-2561) were purchased from Clonetics. […] Following transfections, luciferase activity was determined using the Dual-Luciferase reporter assay system (Promega) on a microtiter luminescence detection system (MLX, Dynex). […]

4RE-luc and MCK-luc = test: Chromatin-integrated muscle-specific reporters in stable C2C12 clones; type: cell-based, mouse; conditions: TSA in GM (presence of serum), 48 hours
Experimental: FIGS. 2A-D are graphs showing DI activation muscle-specific transcription in skeletal muscle cells. […] Luciferase activity was measured in non-treated cells cultured in either GM (GM) or DM (DM). Alternatively, C2C12 were exposed to sodium butyrate for 24 hours in GM and then switched to DM without sodium butyrate (Butyr/GM>DM) or treated with sodium butyrate when cultured in DM (Butyr/DM) before being analyzed for luciferase activity. […] Luciferase assays were performed after culturing the cells for 48 hours in DM without sodium butyrate. […] The reporter activity was also analyzed in cells differentiated in the absence of TSA (DM)
Mouse muscle myoblast C2C12 cells (obtained from the American Type Culture Collection, ATCC CRL-1772) and CC42 cells (from Dr. Kenneth Walsh, Tufts University School of Medicine) were cultured in DMEM supplemented with 20% fetal bovine serum, 2 mM glutamine and 1× kanamycin (growth medium, GM). Cellular differentiation was induced with DMEM supplemented with 2% horse serum and 1× insulin, transferring, selenium (Life Technologies). Human skeletal myocytes (CC-2561) were purchased from Clonetics. […] Following transfections, luciferase activity was determined using the Dual-Luciferase reporter assay system (Promega) on a microtiter luminescence detection system (MLX, Dynex). […]

For `CC(/C=C/C(=O)NO)=C\[C@@H](C)C(=O)c1ccc(N(C)C)cc1` [TSA, trichostatin A], the “formation of MHC-positive myotubes and MHC expression levels” value [1] was “greatly enhanced the formation of MHC-positive myotubes and increased the MHC expression levels” and the “activation of integrated 4RE-luc and MCK-luc templates” value (4RE-luc and MCK-luc) was “two-to-three”.
